Values quoted from earlier work in US20190083649A1, “CROSSLINKED POLYMER NANO-ASSEMBLIES AND USES THEREOF” (University of Massachusetts, priority 2017, published 2019).

**Q.** With `C=C(C)C(=O)OCCN(C(C)C)C(C)C` [DPA, 2-(diisopropylamino)ethyl methacrylate] as the molecule, how does the “pKa of the protonated form of the amine” value read?
**A.** Its value is “around 6.2”.
